Consider three compounds from patent US20230374460A1, “Methods for Cardiac Differentiation of Human Induced Pluripotent Stem Cells” (The Trustees of Columbia University in the City of New York, priority 2015, published 2023).

The test system of assay [1] is human iPSC lines. Nature of the assay: Monolayer cardiac differentiation of iPSCs into beating cardiomyocytes (serum-containing protocol, optimisation of GSK3 inhibitor dose and oxygen level). The following applies: single use, 20% O2. The assay is classed as cell-based. The text has this:
CHIR99021 (GSK3 inhibitor, #1386, Lot #6 & #7, Axon MedChem) and BIO (GSK3 inhibitor IX, #361550, Lot #D00148116, Calbiochem) (Minami et al., Cell reports 2, 1448-1460(2012)), IWP-3 (Wnt inhibitor, #SML0533, Lot #102m4613V, Sigma-Aldrich) resolved in Dimethyl Sulfoxide (DMSO, #276855, Sigma-Aldrich) were used for monolayer differentiation of iPSCs plated on Geltrex in 6-well plate or 10 cm dish. To prepare differentiating culture media, only one freeze and thaw cycle was confirmed for all aliquots of small compounds CHIR99021 and BIO and recombinant human growth factors. Twice freeze and thaw cycle was confirmed for IWP-3 aliquots. For the differentiation protocol with serum-containing media, DF20/5 media was used for cardiac differentiation and culture: DMEM/F-12 (with GlutaMax I) containing 20% or 5% Hyclone FBS, 1% non-essential amino acid, P.S. and 0.1 mM bME. Additional D-glucose was added to only DF20 as high glucose media (final 4.5 g/l) to enhance mesoderm differentiation from Day 1 to Day 4. For BIO and CHIR treatment, media was changed everyday. For IWP-3 treatment, media was changed every other day. DF5 media was used for the maintenance of cardiomyocytes after differentiation (Day 11˜) and media was changed every other day. Changed media using DF20 with small compounds required ˜3 ml per well in 6-well and ˜15 ml per 10 cm dish every other day since adding 2-2.5 ml of fresh media to a well of 6-well plates was not sufficient for high confluence of cells during differentiation into cardiomyocytes, resulting in lower efficiency of cardiac differentiation. […] For the differentiation protocol without serum containing media, Iscove's Modified Dulbecco Media (IMDM, Sigma-Aldrich) with B27 supplement (-minus insulin version, Life Technologies) was used for mesoderm differentiation (Day 1 to Day 3) and IMDM media with B27 (regular version, Life Technologies) was used for further differentiation and maintenance (Day 4˜). […] For the comparison between different serum free monolayer cardiac differentiation protocols (FIG. 3), RPMI1640 media (Sigma-Aldrich) and Activin A and BMP4 (R & D Systems), B27 supplement (both regular & minus insulin version, Life Technologies), human albumin (Sigma) and L-ascorbic acid 2-phosphate (Sigma-Aldrich) were used to make the corresponding differentiation media. In case of using DMEM/F-12 media for serum-free protocol, all cells died during early stage of cardiac differentiation (data not shown). All images and movies were taken in the tissue culture room using TS100F-LED microscope operated by Nikon NIS-Elements with objectives (4×, CFI Plan Fluor DL, NA 0.13; 10×, CFI Achromat ADL, NA0.25; 20×, CFI Achromat LWD ADL, NA 0.4, Nikon). Antibodies to sarcomeric alpha-actinin (clone #EA-53, Sigma-Aldrich) were used for immunocytochemistry of human cardiomyocytes (3-4 weeks later after cardiac differentiation). The cell size was analyzed blindly by E. Uche-Anya using Fiji software (FIG. 6). FACS analyses were performed in Columbia Center for Translational Immunology (CCTI) using a BD FACS Calibur using control and patient cardiomyocytes at day 19. Standard protocol for FACS was used first with 0.5% saponin (Sigma-Aldrich) for permeabilization at blocking step and next with sarcomeric alpha-actinin antibody (Sigma-Aldrich, clone #EA-53, 1/200 dilution) or cardiac troponin T (clone #13-11, Thermo Scientific, 1/500 dilution) and goat anti-mouse Alexa Fluor 488 secondary antibody (Life Technologies, 1/500) in FACS buffer (0.1% saponin, 2% FBS and 2 mM EDTA in Hanks buffer in HEPES, HBSS). The FACS data analyses were blindly performed by J. Feng. The identical cell samples were also used before fixation, for RNA/cDNA preparation and gene expression profiling using qPCR. Dimethyl Sulfoxide (DMSO) quality is critical to get reproducible results using small compounds, especially CHIR99021 (CHIR, #1386, lot #6 & #7, Axon MedChem). DMSO should be kept from ambient air. […]

Assay [2] has as its system LQTS cardiomyocytes. As to the kind of experiment: Dual optical recording of action potentials (ArcLight) and calcium handling (R-GECO1) in LQTS (Timothy syndrome) iPSC-derived cardiomyocytes. It is filed as cell-based, human. Here is the method: Plasmids of R-GECO1 (Addgene #32462) (Zhao et al., 2011) and ArcLight (Addgene #36857) (Jin et al., 2012) were used as template to amplify the cDNA using Phusion polymerase (Thermo Scientific) with primer sets that allowed us to add restriction enzyme site EcoRI and Kozak sequence before the start codon (without nuclear localization signal for R-GECO) and another site XhoI after the stop codon. These PCR products were subcloned into lentiviral vector that was prepared from LV-SD-Cre (Addgene, #12105, no longer available currently) digested with EcoRI and XhoI. XL-10 Gold competent cells (Agilent) transformed with these LV-SD vectors were inoculated at 24-30° C. The purified LV-SD vectors were transfected together with pCMV-dR8.2 dvpr and pCMV-VSV-G (Addgene #8455 & 8454) as follow: HEK293T cells that were plated at 5×10^5 cell/ml (2 ml per well) one day before were transfected with total 3.4 μg per well (ratio, LV-SD:dR8.2:VSV-G=8:8:1) and LF-2K (8.0 μl per well) in a 6-well plate. The next day the media was changed. Two days after transfection, culture media was harvested (again fresh media was added to transfected HEK 293T cells) and filtered using 0.45 μm PES filter (VWR) and then directly added to wells containing monolayer cardiomyocytes (at 2-3 weeks after inducing cardiac differentiation). No polybrene was used for viral infection. Seventy-two hours after transfection, the culture media was again collected and used as secondary infection. The next day media was changed to DF5 media for infected cardiomyocytes. In case of serum-free condition, Lenti-X concentrator (TaKaRa/Clontech) was used for media change, following the manufacture's instruction. Three to five days after the secondary infection, monolayer cardiomyocytes were transferred to 35 mm glass bottom culture dishes (7 mm diameter, No. 1.5 glass) coated with Geltrex. Nikon Ti-U epi-fluorescent microscope connected to EMCDD Digital Monochrome camera (Evolve, EVO-512-M-FW-16-AC, 512×512, Photometrics) was used with LED light source (Lumencore Spectra X 6 line LED system, with Chroma excitation mounted filters, ET395/25x, ET470/30, ET550/15x, ET640/30x;) with dichroic mirror and emission filter (dichroic mirror, D/F/Cy3/Cy5pc; emission, ET430/36 513/44 595/41 719/105) operated by MetaFlour (Molecular Devices, acquisition: exposure time, 20 ms; gain 3 (6×); transfer speed, 5 MHz, Image size: 512×512; binning, 1.0). Temperature of the bath solution was maintained at approximately 35° C. using a digital temperature controller (TC-344B, Warner Instruments) for the duration of the experiment. Nikon objective lens 40× (CF1 S Fluor, NA 0.90) for cell clusters and 60× (CFI Plan Apo Lambda H, NA 1.40) for single cells were used to capture two fluorescent signals as R-GECO1 (illumination control. 10 in 0-255, cy3) and ArcLight (150 in 0-255, FITC, 4 or 8 frames per sec). Isoproterenol (10 μM, Sigma Aldrich) and R-roscovitine (0.5 and 5 μM) were used for fluorescent imaging. The effect of serum concentration on the imaging using ArcLight and R-GECO1 in control and patient cells was not observed at approximately 35° C. […] Daily imaging in cardiomyocytes infected at day 15 was conducted for 18 days (day 23-40). Additional recordings were performed at day 90 to examine low long ArcLight and R-GECO1 signals are available.
A dual optical imaging system using two genetically encoded indicators, ArcLight for voltage and R-GECO1 for calcium transients, has been developed to efficiently phenotype the patient specific iPSC-derived cardiomyocytes derived from the serum containing protocol (Song, et al. Stem Cells Transl Med. 4(5):468-75 (2015)). […] Those phenotypes of Timothy syndrome patient iPSCs derived cardiomyocytes can be rescued by 5 μM Roscovitine treatment (FIGS. 2B-2C and FIG. 5).

Assay [3] deals with control (Ctrl) cardiomyocytes. Nature of the assay: Dual optical recording of action potentials (ArcLight) and calcium handling (R-GECO1) in control iPSC-derived cardiomyocytes. The note with it: 5 μM, 10 min. The assay is classed as cell-based, human. Here is the method: Plasmids of R-GECO1 (Addgene #32462) (Zhao et al., 2011) and ArcLight (Addgene #36857) (Jin et al., 2012) were used as template to amplify the cDNA using Phusion polymerase (Thermo Scientific) with primer sets that allowed us to add restriction enzyme site EcoRI and Kozak sequence before the start codon (without nuclear localization signal for R-GECO) and another site XhoI after the stop codon. These PCR products were subcloned into lentiviral vector that was prepared from LV-SD-Cre (Addgene, #12105, no longer available currently) digested with EcoRI and XhoI. XL-10 Gold competent cells (Agilent) transformed with these LV-SD vectors were inoculated at 24-30° C. The purified LV-SD vectors were transfected together with pCMV-dR8.2 dvpr and pCMV-VSV-G (Addgene #8455 & 8454) as follow: HEK293T cells that were plated at 5×10^5 cell/ml (2 ml per well) one day before were transfected with total 3.4 μg per well (ratio, LV-SD:dR8.2:VSV-G=8:8:1) and LF-2K (8.0 μl per well) in a 6-well plate. The next day the media was changed. Two days after transfection, culture media was harvested (again fresh media was added to transfected HEK 293T cells) and filtered using 0.45 μm PES filter (VWR) and then directly added to wells containing monolayer cardiomyocytes (at 2-3 weeks after inducing cardiac differentiation). No polybrene was used for viral infection. […]

Setting [4] is: monolayer of LQTS cardiomyocytes, serum-containing protocol (FIG. 5D).

As for `Cc1c[nH]c(-c2cnc(NCCNc3ccc(C#N)cn3)nc2-c2ccc(Cl)cc2Cl)n1` [CHIR], the beating cells result in assay [1] (CHIR 5 μM) is “provided beating cardiomyocytes and Yes”; in assay [1] (CHIR 10 μM), “No”; in assay [1] (CHIR 15 μM) it was “No”; in assay [1] (CHIR 20 μM) it was “No”. Also, the “beating cells, where in the well” value in assay [1] (CHIR 5 μM) is “only around the center of well”.

Take `O=C1Nc2cc(Br)ccc2/C1=C1/Nc2ccccc2/C1=N\O` [BIO, (2′ Z,3′ £)-6-Bromoindirubin-3′-oxime]: the beating cells result is “provided beating cardiomyocytes and Yes” in assay [1] (BIO 1 μM); “Yes” in assay [1] (BIO 2 μM); “No” in assay [1] (BIO 4 μM); “No” in assay [1] (BIO 8 μM). Also, the “beating cells, where in the well” value in assay [1] (BIO 2 μM) is reported as “only around the edge of well”.

For the compound `CC[C@H](CO)Nc1nc(NCc2ccccc2)c2ncn(C(C)C)c2n1` [Roscovitine], the “phenotypes in action potentials, channel inactivation and calcium handling in Timothy syndrome cardiomyocytes” value in assay [2] is listed as “rescued the phenotypes”. In addition, the APD90 entry is given as “positive effects” in assay [2] (5 μM, 10 min, LQTS cardiomyocytes, serum-free condition (FIG. 5H)) and “no effect” in assay [3] (serum-free protocol (FIG. 5F)). The “number of spontaneous calcium transients” value is on record as “positive effects” in assay [2] (5 μM, 10 min, LQTS cardiomyocytes, serum-free condition (FIG. 5I)); “increased” in assay [2] (setting [4]); “no effect” in assay [3] (serum-free protocol (FIG. 5G)). Besides, in assay [2] (5 μM, cardiomyocytes derived using the serum-free protocol), the “phenotypes of Timothy syndrome cardiomyocytes” value is “rescued the phenotypes”. Also, the “phenotypes (prolonged action potentials and abnormal calcium handling) of Timothy syndrome cardiomyocytes” value in assay [2] (5 μM, cardiomyocytes from the serum-containing protocol) is reported as “rescued”. Besides, in assay [2] (5 μM, single LQTS CMs, before, during and after treatment (FIG. 2B)), the “irregular calcium handling and electrical activities” value is recorded as “prevented”. The “action potential (APD90, 90% from peak)” value in assay [2] (monolayer of LQTS cardiomyocytes, serum-containing protocol (FIG. 5C)) is on record as “shortened”. The beating rate result in assay [2] (setting [4]) was “increased”. In addition, the prolonged action potentials entry in assay [2] (single LQTS cardiomyocytes, n=12, 4 lines from two patients (FIG. 2C)) is “rescued”.
